Reference: patent US20110230476A1, “PI3 KINASE INHIBITORS AND USES THEREOF” (AVILA THERAPEUTICS, INC., priority 2009, published 2011)

Target: T1, PI3Kα (p110α/p85α) (Homo sapiens, UniProt P42336)
T1 construct: purchased BPS Bioscience (San Diego, Calif.) or Millipore (Billerica, Mass.)
Assay: HTRF assay, potency against active PI3Kα
Type: biochemical
Details: HTRF; [ATP]=50 μM, [di-C8-PIP2]=10 μM; 30 min pre-incubation; read-out: PI3Kα Inhibition
Description: Homogeneous Time Resolved Fluorescence (HTRF) Assay Protocol for Potency Assessment Against the Active Forms of PI3Kα, PI3Kβ, and PI3Kγ
The mechanics of the assay platform are best described by the vendor (Millipore, Billerica, Mass.) on their website at the following URL: www.millipore.com/coa/tech1/74jt4z.
Briefly, Stop solution (Stop A, #33-007 and Stop B, #33-009; 3:1 ratio) and Detection Mix (from DMC, #33-015 with DMA, #33-011 and DMB, #33-013; 18:1:1 ratio) were prepared as recommended by the manufacturer about 2 hrs prior to use. […] Lipid kinase reactions were started with the addition of 5 μL of ATP solution, mixed for 15 sec on a rotary plate shaker and incubated for 30-60 minutes at 25° C. Next, reactions were stopped with a 5 μL addition of Stop solution immediately followed by a 5 μL volume of Detection Mix. […] At the conclusion of each assay, the HTRF ratio from fluorescence emission values for each well was calculated and % Inhibition determined from averaged controls wells (+/−PI3K enzyme). % Inhibition values for each compound were then plotted against inhibitor concentration to estimate IC50 from log [Inhibitor] vs Response, Variable Slope model in GraphPad Prism from GraphPad Software (San Diego, Calif.).

T1 sequence (P42336 whole entry): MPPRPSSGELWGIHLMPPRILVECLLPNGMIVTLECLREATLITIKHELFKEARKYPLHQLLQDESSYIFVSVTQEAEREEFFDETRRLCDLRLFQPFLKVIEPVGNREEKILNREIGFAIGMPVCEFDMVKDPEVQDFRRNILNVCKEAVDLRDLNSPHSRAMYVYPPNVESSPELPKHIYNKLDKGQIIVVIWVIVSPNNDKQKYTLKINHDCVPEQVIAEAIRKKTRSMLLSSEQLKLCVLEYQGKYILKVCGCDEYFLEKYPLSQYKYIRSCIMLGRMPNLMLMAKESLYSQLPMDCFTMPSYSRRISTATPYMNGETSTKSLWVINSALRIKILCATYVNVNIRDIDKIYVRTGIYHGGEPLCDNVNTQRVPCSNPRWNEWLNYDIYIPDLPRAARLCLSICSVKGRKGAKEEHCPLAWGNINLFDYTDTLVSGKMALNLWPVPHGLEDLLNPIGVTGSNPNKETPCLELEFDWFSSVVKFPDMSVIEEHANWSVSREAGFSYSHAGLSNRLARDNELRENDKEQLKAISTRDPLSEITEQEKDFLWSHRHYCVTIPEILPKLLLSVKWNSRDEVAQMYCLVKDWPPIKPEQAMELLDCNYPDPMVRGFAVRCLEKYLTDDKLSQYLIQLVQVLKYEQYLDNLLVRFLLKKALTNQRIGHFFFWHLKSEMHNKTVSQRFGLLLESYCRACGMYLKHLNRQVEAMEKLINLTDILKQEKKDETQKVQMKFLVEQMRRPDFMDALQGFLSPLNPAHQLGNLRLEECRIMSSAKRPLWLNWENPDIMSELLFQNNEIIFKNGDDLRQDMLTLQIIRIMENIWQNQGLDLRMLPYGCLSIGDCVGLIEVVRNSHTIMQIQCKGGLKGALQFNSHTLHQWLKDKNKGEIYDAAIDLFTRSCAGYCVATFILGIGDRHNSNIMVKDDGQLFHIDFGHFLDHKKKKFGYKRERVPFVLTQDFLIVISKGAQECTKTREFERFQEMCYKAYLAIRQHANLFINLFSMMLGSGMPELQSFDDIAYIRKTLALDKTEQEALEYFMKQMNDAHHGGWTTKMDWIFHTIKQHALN
T1 sequence (P27986 whole entry partner): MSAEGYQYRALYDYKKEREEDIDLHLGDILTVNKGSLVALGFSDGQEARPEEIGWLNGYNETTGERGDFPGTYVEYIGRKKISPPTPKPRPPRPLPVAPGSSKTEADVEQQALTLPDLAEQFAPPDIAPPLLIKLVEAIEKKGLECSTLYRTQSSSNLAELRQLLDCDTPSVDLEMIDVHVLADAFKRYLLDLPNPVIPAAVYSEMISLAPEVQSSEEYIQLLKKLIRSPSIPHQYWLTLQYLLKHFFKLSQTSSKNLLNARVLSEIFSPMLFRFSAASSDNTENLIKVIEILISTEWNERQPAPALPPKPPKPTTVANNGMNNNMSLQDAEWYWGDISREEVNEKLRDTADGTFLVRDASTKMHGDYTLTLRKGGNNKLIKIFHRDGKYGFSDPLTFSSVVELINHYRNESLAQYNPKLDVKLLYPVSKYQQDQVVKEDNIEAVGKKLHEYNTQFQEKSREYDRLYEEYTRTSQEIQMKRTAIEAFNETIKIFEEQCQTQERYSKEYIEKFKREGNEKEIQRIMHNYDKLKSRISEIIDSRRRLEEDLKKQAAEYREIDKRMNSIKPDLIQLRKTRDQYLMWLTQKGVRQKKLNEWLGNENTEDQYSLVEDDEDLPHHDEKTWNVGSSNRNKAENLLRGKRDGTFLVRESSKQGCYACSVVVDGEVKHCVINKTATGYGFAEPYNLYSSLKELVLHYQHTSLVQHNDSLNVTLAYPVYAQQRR

| IC50 | SMILES |
| --- | --- |
| > 1000 nM | C=CC(=O)Nc1ccc(CNC(=O)c2cc(-c3cccc4[nH]ncc34)nc(N3CCOCC3)c2)cc1 [XII-14, N-(4-acrylamidobenzyl)-2-(1H-indazol-4-yl)-6-morpholinoisonicotinamide] |
| 100 to 1000 nM | Cn1ccnc1/C=C/C(=O)CCC(=O)N1CCN(Cc2cc3nc(-c4cccc5[nH]ncc45)nc(N4CCOCC4)c3s2)CC1 [II-a-129, (E)-1-(4-((2-(1H-indazol-4-yl)-4-morpholinothieno[3,2-d]pyrimidin-6-yl)methyl)piperazin-1-yl)-6-(1-methyl-1H-imidazol-2-yl)hex-5-ene-1,4-dione] |
| > 1000 nM | C/C=C/C(=O)CCCC(=O)NCC(=O)Nc1ccc2c(c1)N(c1nc3c(s1)C(=O)NC(C)(C)C3)CCO2 [VI-25] |
| 10 to 100 nM | C=CC(=O)N1CCc2cc(-c3cc4nc(-c5cccc(O)c5)nc(N5CCOCC5)c4s3)ccc2C1 [II-a-66, 1-(6-(2-(3-hydroxyphenyl)-4-morpholinothieno[3,2-d]pyrimidin-6-yl)-3,4-dihydroisoquinolin-2(1H)-yl)prop-2-en-1-one] |
| > 1000 nM | C/C=C/C(=O)CCC(=O)NCc1ccc(OC)c(-n2c(CSc3ncnc4[nH]cnc34)nc3cccc(Cl)c3c2=O)c1 [I-6, (E)-N-(3-(2-((9H-purin-6-ylthio)methyl)-5-chloro-4-oxoquinazolin-3(4H)-yl)-4-methoxybenzyl)-4-oxohept-5-enamide] |
| 10 to 100 nM | C=CC(=O)N1CCC(O)(CCc2cc3nc(-c4cccc(O)c4)nc(N4CCOCC4)c3s2)CC1 [II-a-111, 1-(4-hydroxy-4-(2-(2-(3-hydroxyphenyl)-4-morpholinothieno[3,2-d]pyrimidin-6-yl)ethyl)piperidin-1-yl)prop-2-en-1-one] |
| 100 to 1000 nM | O=C(/C=C/c1cnc[nH]1)NCC12CCC(c3cc4nc(-c5cccc6[nH]ncc56)nc(N5CCOCC5)c4s3)(CC1)OC2 [II-a-177, (E)-N-((1-(2-(1H-indazol-4-yl)-4-morpholinothieno[3,2-d]pyrimidin-6-yl)-2-oxabicyclo[2.2.2]octan-4-yl)methyl)-3-(1H-imidazol-5-yl)acrylamide] |

The remaining lines, values behind:

| SMILES | IC50 |
| --- | --- |
| C=CC(=O)N1CCN(c2ccc(-c3cc(-c4cnc(N)nc4)nc(N4CCOCC4)c3)cn2)CC1 [XII-28, 1-(4-(2′-(2-aminopyrimidin-5-yl)-6′-morpholino-3,4′-bipyridin-6-yl)piperazin-1-yl)prop-2-en-1-one] | 100 to 1000 nM |
| CCC(=O)NCc1cccc(-c2cc3nc(-c4cccc(O)c4)nc(N4CCOCC4)c3s2)c1 [II^R-a-64, N-(3-(2-(3-hydroxyphenyl)-4-morpholinothieno[3,2-d]pyrimidin-6-yl)benzyl)propionamide] | 100 to 1000 nM |
| C/C=C/C(=O)CCC(=O)N1CCC2(CC1)CN(c1cc(-c3cnc(N)nc3)nc(N3CCOCC3)c1)C2 [XII-40, (E)-1-(2-(2-(2-aminopyrimidin-5-yl)-6-morpholinopyridin-4-yl)-2,7-diazaspiro[3.5]nonan-7-yl)hept-5-ene-1,4-dione] | 100 to 1000 nM |
| C=CC(=O)NCC(=O)NCc1ccc(-c2cc3nc(-c4cccc5[nH]ncc45)nc(N4CCOCC4)c3s2)cc1 [II-a-128, N-(2-(4-(2-(1H-indazol-4-yl)-4-morpholinothieno[3,2-d]pyrimidin-6-yl)benzylamino)-2-oxoethyl)acrylamide] | 100 to 1000 nM |
| O=C(/C=C/c1ncc[nH]1)CCC(=O)N1CCN(Cc2cc3nc(-c4cccc5[nH]ncc45)nc(N4CCOCC4)c3s2)CC1 [II-a-125, (E)-1-(4-((2-(1H-indazol-4-yl)-4-morpholinothieno[3,2-d]pyrimidin-6-yl)methyl)piperazin-1-yl)-6-(1H-imidazol-2-yl)hex-5-ene-1,4-dione] | 100 to 1000 nM |
| CC(C)=CC(=O)C(=O)N1CCN(c2cc(C)c(-c3cc(-c4cnc(N)nc4)nc(N4CCOCC4)c3)cn2)CC1 [XII-26, 1-(4-(2′-(2-aminopyrimidin-5-yl)-4-methyl-6′-morpholino-3,4′-bipyridin-6-yl)piperazin-1-yl)-4-methylpent-3-ene-1,2-dione] | 10 to 100 nM |
